# Experimental data: PubChem BioAssay AID1996
# Details: buffer; pH 7.4; 200.0 µM
row,Structure (SMILES),solubility kinetic [µg/mL]
1,COc1ccc(CNC(=O)COC(=O)CCc2c[nH]c3ccccc23)cc1,44.4
2,CC1CCc2c(sc(NC(=O)C3=COCCO3)c2C(N)=O)C1 (centres undefined),6.3
3,CCc1cc2cc(C)cc(C)c2[nH]c1=S,3.9
4,CCOc1ccc(C(=O)CCC(=O)Nc2ncccc2O)cc1,> 47.2
5,CC(C)CN(C(=O)CN(C)CC(=O)Nc1ccccc1C#N)c1c(N)n(CC(C)C)c(=O)[nH]c1=O,> 72.5
6,Cc1ccc(C(=O)NCCONC(=O)c2ccc(C)cc2)cc1,45.6
7,COC(=O)c1c(C)[nH]c(C(=O)NCc2ccco2)c1C,35.3
8,CCOc1ccccc1/C=C/c1nc2ccccc2[nH]c1=O,1.6
9,Cc1ccc2cccc(OCc3cccc([N+](=O)[O-])c3)c2n1,23.6
10,O=C(CCNC(=O)c1ccccc1)Nc1ccc(S(=O)(=O)Nc2ncccn2)cc1,> 63.8
11,Cc1cccc(C(=O)NCc2ccco2)c1,> 32.3
12,O=C(COC(=O)c1ccccc1O)NC(c1ccccc1)c1ccccc1,5.9
13,Cc1ccc2c(C)c(C(=O)N(C)Cc3nccn3C)oc2c1C,> 46.7
14,Cc1cc(SCc2ccc(Cl)c(Cl)c2)nc(=O)[nH]1,1.4
15,CC(=O)c1cccc(NC(=O)NCCc2c[nH]c3ccccc23)c1,2.2
16,Cc1cc(C)n(NC(=S)NC2CCCCC2)c(=O)c1C#N,> 45.7
17,NCC(c1ccccc1Cl)c1c[nH]c2ccccc12 (centres undefined),> 40.6
18,CCN(CC)C(=O)CSc1nc(-c2ccccc2)cc(=O)[nH]1,> 47.6
19,Cc1nc2ccc(NC(=O)CCC3CCCC3)cc2s1,8.9
20,CNC(=O)c1c(NC(=O)c2ccc3ncsc3c2)sc(C)c1C,2
21,CCOc1ccc2[nH]c3c(NCCO)ncnc3c2c1,> 40.8
22,Cc1ccc(NC(=O)CNC(=O)C2CCCCC2)nc1,> 41.3
23,N#Cc1c(N)n(-c2ccc(C(=O)O)cc2)c2nc3ccccc3nc12,28.5
24,CC(=O)CSc1nnc2cc(C)c3ccccc3n12,> 40.7

row,Structure (SMILES),solubility kinetic [µg/mL]
1,O=C(/C=C/c1ccccc1)Oc1coc(CSc2ncccn2)cc1=O,10.2
2,Cc1nc(-c2ccc(C#N)cc2)cs1,13.5
3,Cc1cc(O)c(C(=O)/C=C/c2cccc([N+](=O)[O-])c2)c(=O)o1,> 45.2
4,O=c1c2ccccc2nc(/C=C/c2ccccn2)n1-c1ccccc1,0.6
5,COc1ccc(C(=O)OCc2c(C)noc2C)cc1,> 39.2
6,CN1CCN(Cc2cc3c(cc2[N+](=O)[O-])OCO3)CC1,38.3
7,COc1cc(OC)c(NC(=O)C2CCCO2)cc1Cl (centres undefined),> 42.9
8,Cc1ccc(N(Cc2ccccc2O)C(=O)c2ccccc2F)cc1,< 0.7
9,CCOc1ncccc1C(=O)OC(C)C(=O)Nc1ccc(CC)cc1 (centres undefined),7.1
10,O=C(COC(=O)c1cccnc1Cl)NC1CCCCC1,> 44.5
11,CCCn1c(SCC(=O)N(CC)CC)nnc1-c1ccncc1,> 50
12,COC(=O)C(C)Oc1ccc(-c2nccc(-c3ccc(F)cc3)n2)cc1 (centres undefined),2.6
13,CCC(C)Nc1nc(N)c([N+](=O)[O-])c(NC2CCCCC2)n1 (centres undefined),< 0.1
14,CC(=O)Nc1ccc(NC(=O)c2ccc(OCc3c(C)noc3C)cc2)cc1,2.2
15,COc1ccc2c(c1)-c1nc(/N=C/c3c(O)ccc4ccccc34)sc1CC2,27.1
16,CCc1c(O)c(-c2ccccc2)c(=O)n(-c2ccccn2)c1-c1ccccc1,> 55.3
17,Cc1nc(NC(=O)CSc2nncs2)c(Cl)cc1Cl,> 50.3
18,CCOC(=O)/C(O)=C(\C#N)c1nc2ccccc2[nH]1,> 38.6
19,Cc1cccc(C)c1NC(=O)C(=O)c1cn(C)c2ccccc12,< 0.3
20,O=C(OCc1cncs1)c1cccs1,> 33.8
21,COc1ccc(NC(=O)c2ccccc2-c2ccccc2C(=O)O)cc1,> 52.1
22,CC1(C)CC(NC2C3CC4CC(C3)CC2C4)CC(C)(C)N1.Cl (centres undefined),> 54.5
23,CCOC(=O)c1ccc2c(c1)N(CC#N)C(=O)C(C)(C)O2,> 43.2
24,CCc1ccc(NC(=O)Nc2ccon2)cc1,> 34.7

row,Structure (SMILES),solubility kinetic [µg/mL]
1,COc1nc(-c2ccccc2)c2cc(C)ccc2n1,15.4
2,Cc1ccc(NC(=O)c2ccccn2)c(Br)c1,< 0.3
3,O=[N+]([O-])c1cccc(/C=C/c2ccncc2)c1,11.9
4,Br.CC(=O)c1sc(Nc2ccc(C)cc2)nc1C,> 49.1
5,CCCCOc1cc(C(=O)NCCN(CC)CC)c2ccccc2n1.Cl,> 57
6,O=C(Nc1nccs1)c1ncc(Cl)c(Cl)c1Cl,12.5
7,COc1cc(C2(c3ccc(O)c(OC)c3)C(=O)N(C)c3ccc(C)cc32)ccc1O,51.4
8,Cc1cc(C(=O)Nc2ccc(F)cc2C)n(-c2ccccc2)n1,> 46.4
9,COc1ccc(CC(=O)O/N=C(\N)c2ccccc2)cc1OC,37.5
10,Cc1nc(NC(=O)CN2CC(C)OC(C)C2)sc1C(=O)N(C)C (centres undefined),44.2
11,Cc1ccc(CNC(=O)c2cc(=O)c3ccccc3o2)cc1,3
12,COc1ccc(Nc2ccc([N+](=O)[O-])c3nonc23)c(OC)c1,< 0.2
13,Cc1csc(SCC(=O)NCc2ccccc2)n1,> 41.8
14,COc1ccccc1/C=N/OCc1ccc(C#N)cc1,0.9
15,Cc1ccc(C(=O)OCC(=O)NC2CCCCCC2)c(C)c1,4.6
16,Cc1onc(-c2ccccc2)c1C(=O)Nc1sccc1C#N,23.5
17,Nc1ncnc(NC2CCS(=O)(=O)C2)c1[N+](=O)[O-] (centres undefined),> 41
18,O=C(CCCO)NNc1c2ccccc2nc2ccccc12,> 44.3
19,COc1ccc(CNc2cccc(C)n2)c(O)c1,28
20,COc1cc(CNc2nc3ccccc3s2)cc(OC)c1OC,48.4
21,CCOc1ccc(N/C(C)=C/C(=O)c2ccc3c(c2)OCCO3)cc1,0.8
22,Cc1noc(C)c1CSCC(=O)Nc1ccc(C#N)c(Cl)c1,> 50.4
23,Cc1ccccc1/C=C/c1cccc[n+]1C.[I-],> 50.6
24,COc1ccc2nc(C)c(C(N)=O)cc2c1,> 32.4

# The remaining lines, values ahead:
row,solubility kinetic [µg/mL],Structure (SMILES)
1,> 44.5,Cc1cccc(NC(=O)CCN2CCCC(C)C2)c1.Cl (centres undefined)
2,< 0.3,COc1ccc(Cl)cc1NC(=O)CNc1ccccc1N1CCOCC1
3,1.6,CCOc1ccc(/C=C2\SC(N3CCCCC3)=NC2=O)cc1
4,> 46.1,O=[N+]([O-])/C(C(Cl)=C(Cl)Cl)=C1\Nc2ccccc2O1
5,> 44.2,Cc1ccc(NC(=O)C2CC(=O)N(C(C)C)C2)cc1Cl (centres undefined)
6,6.6,O=S(=O)(c1ccccc1)N1CCN(Cc2c(O)ccc3ccccc23)CC1
7,> 53.9,COC(=O)NCC(c1ccco1)N1CCN(c2ccc(OC)cc2)CC1 (centres undefined)
8,13.2,O=C(CCl)NCc1cc(-c2ccc(Cl)cc2)no1
9,37.8,CN1CCN(S(=O)(=O)c2ccc(Cl)cc2)CC1
10,> 56.2,Nn1c(SCC(=O)Nc2ccc(N3CCOCC3)cc2)nnc1C1CC1
11,> 53.1,CCS(=O)(=O)N1CCN(CC(=O)NC2CCCCC2)CC1.Cl
12,> 43.6,O=C(C1CCCC1)N1CCCC(Nc2ccc(F)cc2)C1 (centres undefined)
13,> 33,N#Cc1cn(N2CCCCC2)c(=O)[nH]c1=O
14,42.5,COCCn1c(SCC(=O)c2ccccc2)nc2c(c1=O)SCC2
15,7.7,O=C(c1ccc(Oc2cc(Cl)cc(Cl)c2)o1)N1CCCCC1
16,> 47.6,Cc1ccc(CCS(=O)(=O)c2ccc(C(C)(C)C)cc2)cn1
17,19,Cc1cc(OC(=O)c2ccccc2Cl)ccc1N1C(=O)CCC1=O
18,0.5,O=S(=O)(c1ccccc1)N1CCN(Cc2ccccc2)CC1
19,> 43,O=S(=O)(Nc1ccccc1F)c1ccc(Cl)nc1
20,> 50.3,CCOc1ccc(OCC(=O)OC(C)C(=O)NC2CCCC2)cc1 (centres undefined)
21,53.6,COC(=O)C1CCN(C(=O)c2ccc(Cl)c(S(=O)(=O)NCc3ccco3)c2)CC1
22,> 46.5,O=C1CC(N2CCc3ccccc32)C(=O)N1c1ccc(F)cc1 (centres undefined)
23,> 53.2,O=C(N/C(=C/c1ccccc1Cl)C(=O)N1CCCC1)c1ccccc1
24,31.9,O=C(COC(=O)/C=C/c1ccccc1Cl)NCC1CCCO1 (centres undefined)

row,solubility kinetic [µg/mL],Structure (SMILES)
1,> 45.9,CCOC(=O)CN1C(=O)CC(c2ccc([N+](=O)[O-])cc2)C1=O (centres undefined)
2,> 53.3,COc1ccc(NS(=O)(=O)c2cn(C)c(=O)n(C)c2=O)c(OC)c1
3,38.8,COC(=O)c1ccc(S(=O)(=O)NCc2ccco2)o1
4,48.7,CCCCC1(C)NC(=O)N(CC(=O)Nc2ccc(Cl)cc2C)C1=O (centres undefined)
5,7.8,COc1ccc(NC(=O)c2ccc(S(=O)(=O)N3CC(C)OC(C)C3)cc2)cc1 (centres undefined)
6,12,CSc1nc(-c2ccccc2)nc(N2CCOCC2)c1C(C)=O
7,15.8,CCOc1c(C)cnc2c1c(=O)n(Cc1ccccc1F)c(=O)n2C
8,51.7,N/C(=N\O)c1ccc(N2CCN(c3ncccc3C(F)(F)F)CC2)nc1
9,28.2,Cc1noc(NC(=O)c2ccc(Cl)cc2)c1Cl
10,20.5,COc1ccccc1CNC(=O)COc1ccc2c(c1)CCC2
11,2,COC(=O)c1cn(S(=O)(=O)c2ccccc2)c2ccccc12
12,> 39,CCOc1ccc(-n2ccc(=O)c(C(=O)O)n2)cc1
13,0.6,Cc1ccc(NC(=O)N2CCC(C(=O)c3ccc(F)cc3)CC2)cc1
14,> 48.4,Cc1ccc(S(=O)(=O)NCCC2=CCCCC2)cc1C(N)=O
15,> 60.6,O=C(COC(=O)c1ccccc1OCc1ccccc1Cl)NCC1CCCO1 (centres undefined)
16,3.6,Cc1c(C(=O)N(C)Cc2cccc(F)c2)oc2c(Cl)cccc12
17,9.2,O=S(=O)(Nc1ccccn1)c1cc(Cl)ccc1Cl
18,3.1,Cc1ccc(C(=O)NC2=NCCS2)cc1Cl
19,> 37.8,O=C(c1ccccc1)N1CCCCC(Cl)C1=O (centres undefined)
20,5.8,O=S(=O)(c1cnc[nH]1)N1CCN(c2ccc(F)cc2)CC1
21,44.3,CS(=O)(=O)N(CC(=O)N1CCCC1)c1cccc(F)c1
22,> 47.8,CC(=O)Nc1ccccc1OC(C)C(=O)N1CC(C)CC(C)C1 (centres undefined)
23,> 39.8,CCOc1cc(C(=S)N2CCCC2)ccc1OC
